Patent US20230203098A1, “HUMAN TRANSFERRIN RECEPTOR BINDING PEPTIDE” (priority 2020, published 2023)
pKd: −log10 of the molar value. Where two headings read alike, the source gives them in different places. Each block holds one compound with its values, some of them ahead of it. *1 amine or outer side, *2 acyl side, *3 side chain or, on linkers, in order; H or OH if unused. Where a SMILES comes first, the peptide text is derived from it. Bridges are numbered along the chain shown (N, C = ends). [ ]: non-standard residue; d: D form. The star is where a group is joined. Ala(imidazo(1,2-a)pyr3yl) = N[C@@H](Cc1cnc2ccccn12)C(=O)O; X2 = O=C(O)c1cc(C(=O)*)ccc1-c1c2ccc(=O)cc-2oc2cc(O)ccc12; PEG12 = NCCOCCOCCOCCOCCOCCOCCOCCOCCOCCOCCOCCOCCC(=O)O; X5 = O=C([C@H](Cc1cn(CCO)c2ccccc12)N[*:1])[*:2]; NMePhe(3-Cl) = CN[C@@H](Cc1cccc(Cl)c1)C(=O)O; NMeW = CN[C@@H](Cc1c[nH]c2ccccc12)C(=O)O; NMeY = CN[C@@H](Cc1ccc(O)cc1)C(=O)O; PEG4 = NCCOCCOCCOCCOCCC(=O)O; Nva = CCC[C@H](N)C(=O)O; Aib = CC(C)(N)C(=O)O

Target: transferrin receptor (hTfR) (Homo sapiens, UniProt P02786)
Experiment: Intermolecular interaction evaluation test between transferrin receptor (hTfR) and peptide by surface plasmon resonance (SPR)
Type: binding
Summary of the method: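 hTfR captured on Ni-NTA chip then amine-coupled; peptides run single-cycle kinetics at 5–100 nM in 10 mM HEPES pH 8.0, 150 mM NaCl, 0.05% Tween 20, 0.1% BSA, 1.0% DMSO. KD from least-squares curve fitting of sensorgrams.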

[1] = SPR, hTfR, class symbols A-D, read-out: KD
[2] = surface plasmon resonance, hTfR, read-out: KD value for hTfR by SPR (class symbol)
[3] = binding to hTfR by SPR, Table 2 peptides, read-out: KD value (SPR) class
[4] = SPR, peptides, linker-added peptides and FITC conjugates, Patent ID 203-230, read-out: KD

transferrin receptor (hTfR), sequence (P02786 whole entry): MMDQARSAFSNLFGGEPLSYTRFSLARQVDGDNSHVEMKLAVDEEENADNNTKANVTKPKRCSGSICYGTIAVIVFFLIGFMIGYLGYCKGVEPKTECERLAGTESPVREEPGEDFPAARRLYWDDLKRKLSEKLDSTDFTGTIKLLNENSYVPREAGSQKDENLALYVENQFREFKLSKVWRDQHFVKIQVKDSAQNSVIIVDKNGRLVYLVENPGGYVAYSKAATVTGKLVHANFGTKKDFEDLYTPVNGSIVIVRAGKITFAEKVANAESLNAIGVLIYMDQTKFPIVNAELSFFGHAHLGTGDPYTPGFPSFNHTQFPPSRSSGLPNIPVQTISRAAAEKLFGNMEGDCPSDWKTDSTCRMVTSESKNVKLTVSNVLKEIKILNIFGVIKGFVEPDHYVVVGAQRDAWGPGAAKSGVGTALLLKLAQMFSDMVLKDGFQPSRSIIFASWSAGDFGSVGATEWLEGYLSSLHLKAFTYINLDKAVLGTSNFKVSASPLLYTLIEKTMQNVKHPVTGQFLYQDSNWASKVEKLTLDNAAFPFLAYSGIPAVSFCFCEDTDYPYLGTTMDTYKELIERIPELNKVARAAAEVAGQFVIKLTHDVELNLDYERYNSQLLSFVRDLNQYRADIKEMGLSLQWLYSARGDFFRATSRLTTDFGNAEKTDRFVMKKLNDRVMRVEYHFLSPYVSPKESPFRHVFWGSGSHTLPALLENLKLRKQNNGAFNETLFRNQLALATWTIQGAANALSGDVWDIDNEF

Structure (SMILES): CC[C@H](C)[C@@H]1NC(=O)[C@H](Cc2ccc(O)cc2)NC(=O)[C@H](Cc2ccc(O)cc2)NC(=O)[C@H](CC(N)=O)NC(=O)[C@H](Cc2cn(CC(=O)O)c3ccccc23)NC(=O)[C@H](C(C)C)NC(=O)[C@H](Cc2ccccc2)N(C)C(=O)[C@H](C(C)C)NC(=O)[C@H](C)NC(=O)CSC[C@@H](C(N)=O)NC(=O)[C@H](Cc2ccc(O)cc2)N(C)C(=O)[C@H](Cc2ccc(O)cc2)NC(=O)[C@H](CCCNC(=N)N)NC(=O)C(C)(C)NC(=O)[C@H]([C@@H](C)CC)NC1=O [compound 469]
pKd [1]: 7.00 to 9.00

Structure (SMILES): CC[C@H](C)[C@@H]1NC(=O)[C@H](Cc2ccc(O)cc2)NC(=O)[C@H](Cc2ccc(O)cc2)NC(=O)[C@H](CC(N)=O)NC(=O)[C@H](Cc2c[nH]c3ccccc23)NC(=O)[C@H](C(C)C)NC(=O)[C@H](Cc2ccccc2)N(C)C(=O)[C@H](C(C)C)NC(=O)[C@H](C)NC(=O)CSC[C@@H](C(=O)NCCOCCOCCOCCOCCC(=O)NCCOCCOCCOCCOCCC(=O)N[C@@H](CCCCNC(=O)C2CCC(CN3C(=O)C=CC3=O)CC2)C(N)=O)NC(=O)[C@H](Cc2ccc(O)cc2)N(C)C(=O)[C@H](Cc2ccc(O)cc2)NC(=O)[C@H](CCCNC(=N)N)NC(=O)[C@H](CCCNC(=N)N)NC(=O)[C@H]([C@@H](C)CC)NC1=O (stereo partly drawn) [compound 181]
pKd (hTfR binding by SPR, hTfR No. 894 variant peptides, linker-added peptides and payload conjugates (Table 2), read-out: KD value obtained from the SPR measurement): > 9.00

Structure (SMILES): CC[C@H](C)[C@@H]1NC(=O)[C@H](Cc2ccc(OC)cc2)NC(=O)[C@H](Cc2ccc(O)cc2)NC(=O)[C@H](CC(N)=O)NC(=O)[C@H](Cc2c[nH]c3ccccc23)N(C)C(=O)[C@H](C(C)C)NC(=O)[C@H](Cc2cccc(Cl)c2)N(C)C(=O)[C@H](C(C)C)NC(=O)[C@H](C)NC(=O)CSC[C@@H](C(=O)NCC(=O)NCC(=O)NCC(=O)NCC(=O)N[C@@H](CO)C(=O)N[C@@H](CO)C(=O)N[C@@H](CS)C(N)=O)NC(=O)[C@H](Cc2ccc(O)cc2)N(C)C(=O)[C@H](Cc2ccccc2)NC(=O)[C@@H](CCCCN)NC(=O)[C@H](CCCNC(=N)N)NC(=O)[C@H]([C@@H](C)CC)NC1=O [compound 407]
pKd [2]: 7.00 to 9.00

Structure (SMILES): CC[C@H](C)[C@@H]1NC(=O)[C@H](Cc2ccc(O)cc2)NC(=O)[C@H](Cc2ccc(O)cc2)NC(=O)[C@H](CC(N)=O)NC(=O)[C@H](Cc2c[nH]c3ccccc23)NC(=O)[C@H](C(C)C)NC(=O)[C@H](Cc2ccccc2)NC(=O)[C@H](CCCCN)NC(=O)[C@H](C)NC(=O)CSC[C@@H](C(N)=O)NC(=O)[C@H](Cc2ccc(O)cc2)N(C)C(=O)[C@H](Cc2ccc(O)cc2)NC(=O)[C@H](CCCNC(=N)N)NC(=O)[C@H](CCCNC(=N)N)NC(=O)[C@H]([C@@H](C)CC)NC1=O [compound 238]
pKd [3]: 7.00 to 9.00

Structure (SMILES): CC[C@H](C)[C@@H]1NC(=O)[C@H](Cc2ccc(OCCN)cc2)NC(=O)[C@H](Cc2ccc(O)cc2)NC(=O)[C@H](CC(N)=O)NC(=O)[C@H](Cc2c[nH]c3ccccc23)NC(=O)[C@H](C(C)C)NC(=O)[C@H](Cc2ccccc2)N(C)C(=O)[C@H](C(C)C)NC(=O)[C@H](C)NC(=O)CSC[C@@H](C(N)=O)NC(=O)[C@H](Cc2ccc(O)cc2)N(C)C(=O)[C@H](Cc2ccccc2)NC(=O)[C@H](CCCNC(=N)N)NC(=O)[C@H](CCCCN)NC(=O)[C@H]([C@@H](C)CC)NC1=O [compound 521]
pKd (SPR, hTfR, class symbols A-D, read-out: KD (column without head, continuation of the table series)): 7.00 to 9.00

Structure (SMILES): CC[C@H](C)[C@@H]1NC(=O)[C@H](Cc2ccc(O)cc2)NC(=O)[C@H](Cc2ccc(O)cc2)NC(=O)[C@H](CC(N)=O)NC(=O)[C@H](Cc2c[nH]c3cc(F)ccc23)NC(=O)[C@H](C(C)C)NC(=O)[C@H](Cc2ccccc2)N(C)C(=O)[C@H](C(C)C)NC(=O)[C@H](C)NC(=O)CSC[C@@H](C(N)=O)NC(=O)[C@H](Cc2ccc(O)cc2)N(C)C(=O)[C@H](Cc2ccc(O)cc2)NC(=O)[C@H](CCCNC(=N)N)NC(=O)[C@H](CCCNC(=N)N)NC(=O)[C@H]([C@@H](C)CC)NC1=O [compound 270]
pKd [3]: 7.00 to 9.00

Structure (SMILES): CC[C@H](C)[C@@H]1NC(=O)[C@H](Cc2ccccc2)NC(=O)[C@H](Cc2ccc(O)cc2)NC(=O)[C@H](CC(N)=O)NC(=O)[C@H](Cc2c[nH]c3ccccc23)NC(=O)[C@H](C(C)C)NC(=O)[C@H](Cc2c[nH]c3ccccc23)NC(=O)[C@H](C(C)C)NC(=O)[C@H](C)NC(=O)CSC[C@@H](C(=O)NCCOCCOCCOCCOCCOCCOCCOCCOCCOCCOCCOCCOCCC(=O)N[C@@H](CCCCNC(=O)c2ccc(-c3c4ccc(=O)cc-4oc4cc(O)ccc34)c(C(=O)O)c2)C(N)=O)NC(=O)[C@H](Cc2c[nH]cn2)NC(=O)[C@H](CCCNC(=N)N)NC(=O)[C@@H]2CCCN2C(=O)[C@H]([C@@H](C)CC)NC1=O [compound 208] ({CH2CO}-AVWVWNYFIIPRHC[PEG12]K(X2)-NH2; thioether N-14)
pKd [4]: 7.00 to 9.00

Structure (SMILES): CC[C@H](C)[C@@H]1NC(=O)[C@H](Cc2ccc(OC)cc2)NC(=O)[C@H](Cc2ccc(O)cc2)NC(=O)[C@H](CC(N)=O)NC(=O)[C@H](Cc2c[nH]c3ccccc23)N(C)C(=O)[C@H](C(C)C)NC(=O)[C@H](Cc2cccc(Cl)c2)N(C)C(=O)[C@H](CCC(=O)O)NC(=O)[C@H](C)NC(=O)CSC[C@@H](C(N)=O)NC(=O)[C@H](CC(N)=O)NC(=O)[C@H](CCCNC(=N)N)NC(=O)[C@@H]2CCCN2C(=O)[C@H](C(C)C)NC1=O [compound 207] ({CH2CO}-AE[NMePhe(3-Cl)]V[NMeW]NYY(Me)IVPRNC-NH2; thioether N-14)
pKd [4]: 7.00 to 9.00

Structure (SMILES): CC[C@H](C)[C@@H]1NC(=O)[C@H](Cc2ccc(O)cc2)NC(=O)[C@H](Cc2ccc(O)cc2)NC(=O)[C@H](CC(N)=O)NC(=O)[C@H](Cc2c[nH]c3ccccc23)NC(=O)[C@H](C(C)C)NC(=O)[C@H](Cc2ccccc2)NC(=O)[C@H](C(C)C)NC(=O)[C@H](C)NC(=O)CSC[C@@H](C(N)=O)NC(=O)[C@H](Cc2ccc(O)cc2)N(C)C(=O)[C@H](Cc2ccc(O)cc2)NC(=O)[C@H](CCCNC(=N)N)NC(=O)[C@H](C)NC(=O)[C@H]([C@@H](C)CC)NC1=O [compound 253]
pKd [3]: 7.00 to 9.00

Structure (SMILES): CCC[C@@H]1NC(=O)[C@H](C)NC(=O)CSC[C@@H](C(=O)NCCOCCOCCOCCOCCC(N)=O)NC(=O)[C@H](Cc2ccc(O)cc2)N(C)C(=O)[C@H](Cc2ccccc2)NC(=O)[C@@H](CCCNC(=N)N)NC(=O)[C@H](CCCNC(=N)N)NC(=O)[C@H]([C@@H](C)CC)NC(=O)[C@H]([C@@H](C)CC)NC(=O)[C@H](Cc2ccc(OC)cc2)NC(=O)[C@H](Cc2ccc(O)cc2)NC(=O)[C@H](CC(N)=O)NC(=O)[C@H](Cc2c[nH]c3ccccc23)N(C)C(=O)[C@H](C(C)C)NC(=O)[C@H](Cc2cccc(Cl)c2)N(C)C1=O [compound 244] ({CH2CO}-A[Nva][NMePhe(3-Cl)]V[NMeW]NYY(Me)IIR[dR]F[NMeY]C[PEG4]-NH2; thioether N-15)
pKd [3]: 7.00 to 9.00

More lines, now with the values ahead:

pKd (surface plasmon resonance, peptide vs hTfR, read-out: KD value, hTfR binding by SPR (class symbol)): 6.00 to 7.00
Structure (SMILES): CC[C@H](C)[C@@H]1NC(=O)[C@H](Cc2ccc(OC)cc2)NC(=O)[C@H](Cc2ccc(O)cc2)NC(=O)[C@H](CC(N)=O)NC(=O)[C@H](Cc2cn(CCO)c3ccccc23)NC(=O)[C@H](C(C)C)NC(=O)[C@H](Cc2cccc(Cl)c2)N(C)C(=O)[C@H](C(C)C)NC(=O)[C@H](C)NC(=O)CSC[C@@H](C(N)=O)NC(=O)[C@H](Cc2ccc(O)cc2)N(C)C(=O)[C@H](Cc2ccccc2)NC(=O)[C@@H](CCCNC(=N)N)NC(=O)C(C)(C)NC(=O)[C@H]([C@@H](C)CC)NC1=O [compound 305] ({CH2CO}-AV[NMePhe(3-Cl)]V[X5]NYY(Me)II[Aib][dR]F[NMeY]C-NH2; thioether N-15)

pKd [2]: 7.00 to 9.00
Structure (SMILES): CC[C@H](C)[C@@H]1NC(=O)[C@H](Cc2ccc(OC)cc2)NC(=O)[C@H](Cc2ccc(O)cc2)NC(=O)[C@H](CC(N)=O)NC(=O)[C@H](Cc2c[nH]c3ccccc23)N(C)C(=O)[C@H](C(C)C)NC(=O)[C@H](Cc2cccc(Cl)c2)N(C)C(=O)[C@H](C(C)C)NC(=O)[C@H](C)NC(=O)CSC[C@@H](C(N)=O)NC(=O)[C@H](Cc2ccc(O)cc2)N(C)C(=O)[C@H](Cc2ccccc2)NC(=O)[C@H](CCCNC(=N)N)NC(=O)[C@H](CCCNC(=N)N)NC(=O)[C@H]([C@@H](C)CC)NC1=O [compound 386]

pKd [4]: 6.00 to 7.00
Structure (SMILES): CC[C@H](C)[C@@H]1NC(=O)[C@H](Cc2ccc(OC)cc2)NC(=O)[C@H](Cc2ccc(O)cc2)NC(=O)[C@H](CC(N)=O)NC(=O)[C@H](Cc2c[nH]c3ccccc23)N(C)C(=O)[C@H](C(C)C)NC(=O)[C@H](Cc2cccc(Cl)c2)N(C)C(=O)[C@H](CCC(=O)O)NC(=O)[C@H](C)NC(=O)CSC[C@@H](C(N)=O)NC(=O)[C@H](Cc2ccc(O)cc2)N(C)C(=O)[C@H](Cc2ccccc2)NC(=O)[C@@H](CCCNC(=N)N)NC(=O)[C@H](C)NC(=O)[C@H]([C@@H](C)CC)NC1=O [compound 226] ({CH2CO}-AE[NMePhe(3-Cl)]V[NMeW]NYY(Me)IIA[dR]F[NMeY]C-NH2; thioether N-15)

pKd [2]: 7.00 to 9.00
Structure (SMILES): CC[C@H](C)[C@@H]1NC(=O)[C@H](Cc2ccc(OC)cc2)NC(=O)[C@H](Cc2ccc(O)cc2)NC(=O)[C@H](CC(N)=O)NC(=O)[C@H](Cc2c[nH]c3ccccc23)N(C)C(=O)[C@H](C(C)C)NC(=O)[C@H](Cc2cccc(Cl)c2)N(C)C(=O)[C@H](C(C)C)NC(=O)[C@H](C)NC(=O)CSC[C@@H](C(N)=O)NC(=O)[C@H](Cc2ccc(O)cc2)N(C)C(=O)[C@H](Cc2ccccc2)NC(=O)[C@@H](CCCNC(=N)N)NC(=O)[C@H](CCCCN)N(C)C(=O)[C@H]([C@@H](C)CC)NC1=O [compound 377]

pKd [1]: 7.00 to 9.00
Structure (SMILES): CC[C@H](C)[C@@H]1NC(=O)[C@H](Cc2cnc3ccccn23)NC(=O)[C@H](Cc2ccc(O)cc2)NC(=O)[C@H](CC(N)=O)NC(=O)[C@H](Cc2c[nH]c3ccccc23)N(C)C(=O)[C@H](C(C)C)NC(=O)[C@H](Cc2cccc(Cl)c2)N(C)C(=O)[C@H](C(C)C)NC(=O)[C@H](C)NC(=O)CSC[C@@H](C(N)=O)NC(=O)[C@H](Cc2ccc(O)cc2)N(C)C(=O)[C@H](Cc2ccccc2)NC(=O)[C@@H](CCCNC(=N)N)NC(=O)[C@H](CCCNC(=N)N)NC(=O)[C@H]([C@@H](C)CC)NC1=O [compound 456] ({CH2CO}-AV[NMePhe(3-Cl)]V[NMeW]NY[Ala(imidazo(1,2-a)pyr3yl)]IIR[dR]F[NMeY]C-NH2; thioether N-15)
